Assay results reported in US20060079453A1, “Hla binding peptides and their uses” (priority 2002, published 2006).
No end group written: not given here.

Tests used:
Test in all cases: biochemical
Assay type in all cases: binding
HLA-A*3301 = HLA-A*3301 (Homo sapiens, UniProt P04439, A270S/D185E/E176V/E277Q/E87N/F33T/G231S/H175R/I121M/I218V/I322F/K168Q/K210R/L300P/L318F/M331R/P217A/Q86R/Q94H/R138Q/T323A/T345S/T97I/V358M/Y195H)
HLA-A*3101 = HLA-A*3101 (Homo sapiens, UniProt P04439, A270S/D185E/E176V/E277Q/F33T/G231S/G80R/H175R/I121M/I218V/I322F/K168Q/L300P/L318F/M331R/P217A/Q94H/R138Q/T323A/T345S/T97I/V358M)
HLA-A*6801 = HLA-A*6801 (Homo sapiens, UniProt P04439, A269V/D185E/E176V/E277Q/E87N/F33Y/G231S/I121M/I166T/I218V/L180W/L300P/L318F/N151K/P208A/P217A/Q86R/R169H/T345S)
HLA-A*0301 = HLA-A*0301 (Homo sapiens, UniProt P04439)
HLA-A*1101 = HLA-A*1101 (Homo sapiens, UniProt P04439, A114D/D185E/E176A/F33Y/L180Q/S129P/T187R)

Row | Sequence | IC50 (HLA-A*3301) [µM] | IC50 (HLA-A*3101) [µM] | IC50 (HLA-A*6801) [µM] | IC50 (HLA-A*0301) [µM] | IC50 (HLA-A*1101) [µM]
1 | STLPEGPGPGR | 0.822 | 0.028 | 0.03 |  | 
2 | ATRDLCIVYR | 0.044 | 0.0047 | 0.028 | 0.237 | 
3 | FLFTDLRIVYR | 0.021 | 0.058 | 0.0014 | 0.672 | 
4 | KAGPGGYPRK | > 17.8 | 10.7 |  | 0.062 | 0.043
5 | GVIYIMIISK | 1.57 | 18.8 |  | 0.777 | 
6 | KTLGISYGRKK | 23.4 | 0.091 | 0.647 | 0.052 | 
7 | DVSHFLKEK | 0.232 | > 17.8 |  | > 9.3 | 
8 | GVNHQHLPK | 15.6 |  |  | 0.026 | 0.0077
9 | IALLIIPPK | 1.4 |  | 1.96 |  | 0.108
10 | TTLEKLTNR | 0.037 | 0.042 |  | 1.99 | 0.817
11 | KISEYRHYNY | 35.3 |  | 25.1 | 0.042 | 
12 | TFVHEIELK | 4.13 | 8.41 |  | 4.43 | 
13 | FVVQLDIQSTK | 31.4 |  | 0.0027 | 3.68 | 0.853
14 | VTIRIGGQLR | 1.35 | 0.061 | 0.016 | 3.19 | 
15 | PAAYAAQGYK | > 111 | 20.3 | 0.666 | 0.95 | 
16 | LLFYSKVRR | 0.276 |  | 0.011 | 0.056 | 0.073
17 | KFSEYRHYNY | 18.4 |  | 1.8 | 5.82 | 
18 | TTRYKYLNK | 0.652 |  | 2.56 | 0.117 | 0.848
19 | SQVSNSDSYK | > 17.4 | 24.6 |  | 1.66 | 0.083
20 | KTLEERVKR | 1.36 | 0.037 |  | 1.96 | 
21 | VSIRVGGQTR | 8.59 | 0.466 |  |  | 0.241

Row | Sequence | IC50 (HLA-A*3301) [µM] | IC50 (HLA-A*3101) [µM] | IC50 (HLA-A*6801) [µM] | IC50 (HLA-A*0301) [µM] | IC50 (HLA-A*1101) [µM]
22 | KQVQMMIMIK | 1.23 | 4.63 |  | 0.264 | 
23 | MFQDPQERPRK | 0.419 | 0.604 |  | 15.5 | 8.57
24 | SVYGTTLER | 0.454 |  | 0.021 | 0.028 | 0.0064
25 | GVGPGPGLK | > 112 |  |  | 0.047 | 0.004
26 | SIPHAACHR | 0.253 | 0.236 |  |  | 
27 | ELFDKDTFFK | 0.013 | 3.68 | 0.0036 | 0.144 | 
28 | LVGPGPGK | > 126 | 23.9 | 0.598 | 1 | 
29 | VTVKVGGQLK | 46.2 |  | 0.104 | 0.206 | 0.054
30 | DSIPHAACHR | 0.0022 |  | 0.027 | 2.77 | 0.853
31 | EQRLPLLPK | 0.987 |  | 1.91 | 1.09 | 0.765
32 | KMGPGPGK | 106 | 1.14 | 4.16 | 0.084 | 
33 | KVLCDLLIR | 5.9 | 0.066 | 9.05 | 0.363 | 
34 | QMGPGPGNFK | 101 | 2.68 | 0.063 | 0.049 | 
35 | LVYSKVRKYR | 0.049 |  | 0.031 | 0.32 | 0.619
36 | RVHNIAGHYR |  | 0.022 | 0.018 | 0.03 | 0.021
37 | HGAITSSNTK | > 22.9 | > 16.1 |  | 2.84 | 
38 | QMAGPGPGFK | 4.78 |  | 0.03 | 0.0094 | 0.0062
39 | ALERLLSLKK | 18.3 | 33.6 |  |  | 0.822
40 | SLPHAACHK |  | 0.219 | 0.654 | 0.032 | 0.066
41 | RLLSKISEYK | 40 | 0.158 |  | 0.015 | 0.065
42 | AVCWRPRRK | 7.95 |  |  | 0.034 | 
